inhibition, IC50 and Activity data for 35 molecules are collected here from ChEMBL document CHEMBL5052835, “Slc26a3 inhibitors and use thereof” (2021).

Each structure is given as a SMILES string. Activity calls are given as the source filed them. The rule behind the calls is not given here.

For data set [1], the system named is Mus musculus. As to the kind of experiment: In vivo inhibition of […] in loperamide-induced constipation model of female CD-1 mouse at 5 mg/kg, po assessed as reduction in pellet number. It counts as functional, organism-based.
A further data set deals with Colon. As to the kind of experiment: Inhibition of fluid absorption in distal colonic loop isolated from female CD-1 mouse at 10 uM assessed as effect on reduction in loop weight/length ratio. It counts as functional, tissue-based.
Data set [2] has as its system Mus musculus. As to the kind of experiment: In vivo inhibition of […] in loperamide-induced constipation model of female CD-1 mouse at 5 mg/kg, po assessed as reduction in stool weight. It is filed as functional, organism-based.
Data set [3] deals with Mus musculus. As to the kind of experiment: In vivo inhibition of […] in loperamide-induced constipation model of female CD-1 mouse at 5 mg/kg, po assessed as reduction in stool water content. It is filed as functional, organism-based.
The next data set addresses T1, Chloride anion exchanger (Mus musculus, UniProt Q9WVC8).
T1 sequence (Q9WVC8 whole entry): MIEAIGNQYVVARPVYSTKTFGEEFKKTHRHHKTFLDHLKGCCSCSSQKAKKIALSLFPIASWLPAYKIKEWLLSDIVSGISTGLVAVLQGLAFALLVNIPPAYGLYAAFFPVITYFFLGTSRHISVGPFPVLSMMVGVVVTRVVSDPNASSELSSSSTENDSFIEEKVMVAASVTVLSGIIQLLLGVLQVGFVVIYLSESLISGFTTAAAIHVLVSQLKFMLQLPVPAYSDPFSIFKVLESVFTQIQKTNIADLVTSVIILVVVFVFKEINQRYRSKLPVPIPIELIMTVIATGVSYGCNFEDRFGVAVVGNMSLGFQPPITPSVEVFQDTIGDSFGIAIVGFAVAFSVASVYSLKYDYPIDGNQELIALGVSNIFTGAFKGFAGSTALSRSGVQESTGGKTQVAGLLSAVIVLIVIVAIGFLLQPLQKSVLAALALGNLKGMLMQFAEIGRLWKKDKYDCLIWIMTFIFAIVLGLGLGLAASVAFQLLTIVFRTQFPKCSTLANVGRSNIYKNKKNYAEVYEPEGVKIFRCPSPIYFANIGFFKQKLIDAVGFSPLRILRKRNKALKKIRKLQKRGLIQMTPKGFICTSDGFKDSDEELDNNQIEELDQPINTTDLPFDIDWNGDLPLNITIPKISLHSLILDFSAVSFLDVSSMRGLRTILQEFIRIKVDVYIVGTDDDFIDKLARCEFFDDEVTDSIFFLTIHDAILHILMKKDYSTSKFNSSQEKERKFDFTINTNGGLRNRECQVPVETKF
As to the kind of experiment: Inhibition of mouse Slc26a3 transfected in rat FRT cells preincubated with forskolin, 8-Br-cGMP and PMA and measured by fluorescence assay. It is filed as cell-based.

For data set [4], the system named is Mus musculus. As to the kind of experiment: In vivo inhibition of slc26a3 in loperamide-induced constipation model of female CD-1 mouse at 1 to 10 mg/kg, po assessed as reduction in pellet number. It is filed as functional, organism-based. As to conditions: dose 1-10 mg/kg.
Data set [5] concerns Mus musculus. As to the kind of experiment: In vivo inhibition of slc26a3 in loperamide-induced constipation model of female CD-1 mouse at 1 to 10 mg/kg, po assessed as reduction in stool water content. It is filed as functional, organism-based. The following applies: dose 1-10 mg/kg.
The species named for data set [6] is Mus musculus. The data set can be described thus: Inhibition of oxalate absorption in high oxalate and low calcium diet-induced oxalate nephropathy model of mouse assessed as normalization of creatinine level. It counts as functional, organism-based.
Data set [7] has as its system Mus musculus. The data set can be described thus: Inhibition of oxalate absorption in sodium oxalate-induced acute hyperoxaluria mouse model at 10 mg/kg, ip. It counts as functional, organism-based.
Data set [8] concerns Mus musculus. As to the kind of experiment: In vivo inhibition of slc26a3 in loperamide-induced constipation model of female CD-1 mouse at 1 to 10 mg/kg, po assessed as reduction in stool weight. It is filed as functional, organism-based. The following applies: dose 1-10 mg/kg.
The nature of data set [9]: Toxicity in loperamide-induced constipation model of female CD-1 mouse at 10 mg/kg, po assessed as diarrhea. It is filed as organism-based. The following applies: in vivo.
The nature of data set [10]: Toxicity in loperamide-induced constipation model of female CD-1 mouse at 10 mg/kg, po assessed as effect on stool parameters. It is filed as organism-based. As to conditions: in vivo.
The test system of data set [11] is Mus musculus. The data set can be described thus: In vivo inhibition of slc26a3 in loperamide-induced constipation model of female CD-1 mouse at 5 mg/kg, po assessed as reduction in stool weight. It counts as functional, organism-based.
In data set [12] the test system is Mus musculus. The data set can be described thus: In vivo inhibition of slc26a3 in loperamide-induced constipation model of female CD-1 mouse at 5 mg/kg, po assessed as reduction in stool water content. It is filed as functional, organism-based.
Data set [13] has as its system Mus musculus. The data set can be described thus: In vivo inhibition of slc26a3 in loperamide-induced constipation model of female CD-1 mouse at 5 mg/kg, po assessed as reduction in pellet number. It counts as functional, organism-based.

On to `CN1Cc2c(Cl)cc(Cl)cc2[C@H](c2cccc(S(=O)(=O)NCCOCCOCCNC(=O)NCCCCNC(=O)NCCOCCOCCNS(=O)(=O)c3cccc([C@@H]4CN(C)Cc5c(Cl)cc(Cl)cc54)c3)c2)C1`, for which the inhibition result in the data set with Mus musculus [1], in the data set with Mus musculus [2] and with Mus musculus [3] was “Active” each time. In addition, the inhibition entry with Colon was “inactive”. As for `O=C(CSc1nccn1-c1ccc(Cl)cc1)Nc1ccc([N+](=O)[O-])cc1`, the IC50 (commonly the concentration that inhibits the measured activity by half) on Chloride anion exchanger (read-out: IC50) turned out to be 7400 nM. In the case of `Cc1c(CCC(=O)O)c(=O)oc2c(C)c(OCc3ccc(F)cc3)ccc12`, at Chloride anion exchanger (frt), the 50% inhibitory concentration (IC50) result is listed as “Not Active”. Consider `Cc1cccc(-n2ccnc2SCC(=O)Nc2ccc(Br)cc2)c1`, for which, at Chloride anion exchanger (read-out: IC50), the IC50 was found to be 6400 nM. In the case of `COC(=O)CCc1c(C)c2ccc(OCc3cccc(OC)c3)c(C)c2oc1=O`, the IC50 entry at Chloride anion exchanger (frt) is “Not Active”. Regarding `CCCCCOc1ccc2c(C)c(CC(=O)O)c(=O)oc2c1C`, at Chloride anion exchanger (read-out: IC50), the IC50 was determined as 1200 nM. As for `Cc1ccc2ccccc2c1COc1ccc2c(C)c(CCC(=O)O)c(=O)oc2c1C`, at Chloride anion exchanger (frt), the half-maximal inhibitory concentration (IC50) result was “Not Active”. In the case of `Cc1cc(C)cc(-n2ccnc2SCC(=O)Nc2ccc(Cl)cc2)c1`, the IC50 at Chloride anion exchanger (read-out: IC50) amounted to 4600 nM. For `Cc1c(CC(=O)O)c(=O)oc2c(C)c(OCc3cccc(I)c3)ccc12`, the inhibition result in the data set with Mus musculus [4], in the data set with Mus musculus [5], in the data set filed under Mus musculus [6], in the data set with Mus musculus [7] and with Mus musculus [8] was “Active” each time. Moreover, the Activity result in [9] and in [10] was “Non-Toxic” throughout. Consider `COc1ccc(-n2ccnc2SCC(=O)Nc2ccc(Br)cc2)cc1`, for which, at Chloride anion exchanger (read-out: IC50), the IC50 was determined as 1900 nM. Still for that read-out and setting: under `Cc1cc(C)cc(-n2ccnc2SCC(=O)Nc2ccc(Cl)c(Cl)c2)c1` stands 2500 nM. Still for that read-out and setting: under `Cc1cc(C)cc(-n2ccnc2SCC(=O)Nc2ccc(C)c(Cl)c2)c1` stands 2100 nM; under `Cc1cccc(COc2ccc3c(C)c(CC(=O)O)c(=O)oc3c2C)c1`, 480 nM; under `Cc1cc(C)cc(COc2ccc3c(C)c(CC(=O)O)c(=O)oc3c2C)c1`, 540 nM. As for `CCc1ccc(NC(=O)CSc2nccn2-c2ccc(Cl)cc2)cc1`, the IC50 on Chloride anion exchanger (read-out: IC50) was 5700 nM. As for `CCc1ccc(NC(=O)CSc2nccn2-c2cccc(C)c2C)cc1`, the concentration for half-maximal inhibition (IC50) on Chloride anion exchanger (read-out: IC50) was 3500 nM. Consider `Cc1c(CC(=O)O)c(=O)oc2c(C)c(OCc3cccc(F)c3)ccc12`, for which the half-maximal inhibitory concentration (IC50) at Chloride anion exchanger (read-out: IC50) was 840 nM. On the same count and under the same terms, under `Cc1ccc(NC(=O)CSc2nccn2-c2ccc(Cl)cc2)cc1` stands 1600 nM; under `COc1cccc(-n2ccnc2SCC(=O)Nc2ccc(C)cc2)c1`, 7100 nM; under `Cc1c(CC(=O)O)c(=O)oc2c(C)c(OCc3ccccc3F)ccc12`, 510 nM. The same measure, in the same setting: for `Cc1cccc(-n2ccnc2SCC(=O)Nc2ccc(Cl)cc2)c1` the value was 6200 nM; for `O=C(CSc1nccn1-c1ccc(Cl)cc1)Nc1cccc(C(F)(F)F)c1`, 12000 nM; for `Cc1c(CC(=O)O)c(=O)oc2c(C)c(OCc3cccc(Cl)c3)ccc12`, 200 nM. On to `COC(=O)CCc1c(C)c2ccc(OCc3ccc(C(C)(C)C)cc3)c(C)c2oc1=O`, for which the concentration for half-maximal inhibition (IC50) result against Chloride anion exchanger (frt) is listed as “Not Active”. For the molecule `Cc1c(CC(=O)O)c(=O)oc2c(C)c(OCc3ccc(C(C)(C)C)cc3)ccc12`, the IC50 on Chloride anion exchanger (read-out: IC50) came out at 4600 nM. For `O=C(CSc1nccn1-c1cccc(Cl)c1)Nc1ccc(Cl)cc1`, the half-maximal inhibitory concentration (IC50) at Chloride anion exchanger (read-out: IC50) worked out at 2200 nM.

With `CCc1ccc(NC(=O)CSc2nccn2-c2ccc(OC)cc2)cc1`, on Chloride anion exchanger (read-out: IC50), the IC50 was found to be 6500 nM. As for `Cc1c(CC(=O)O)c(=O)oc2c(C)c(OCc3cccc(C(F)(F)F)c3)ccc12`, the inhibition result in the data set on Mus musculus [11], in the data set on Mus musculus [12] and in the data set on Mus musculus [13] was “Active” throughout. In the case of `O=C(CSc1nccn1-c1ccc(F)cc1)Nc1ccc(Cl)c(Cl)c1`, on Chloride anion exchanger (read-out: IC50), the IC50 came to 2600 nM.

For the molecule `Cc1ccc(NC(=O)CSc2nccn2-c2ccccc2)cc1Cl`, the IC50 on Chloride anion exchanger (read-out: IC50) came out at 1500 nM.

As for `O=C(CSc1nccn1-c1cccc(Cl)c1)Nc1ccc(Cl)c(Cl)c1`, the concentration for half-maximal inhibition (IC50) on Chloride anion exchanger (read-out: IC50) is 2900 nM. As for `O=C(CSc1nccn1-c1ccc(Cl)cc1)Nc1ccc(Cl)cc1`, the IC50 on Chloride anion exchanger (read-out: IC50) came to 1700 nM. Still for that read-out and setting: under `Cc1ccc(NC(=O)CSc2nccn2-c2ccc(Cl)cc2)cc1Cl` stands 11000 nM. The same measure, in the same setting: under `CCOc1ccc(-n2ccnc2SCC(=O)Nc2ccc(Cl)cc2)cc1` stands 1700 nM; under `O=C(CSc1nccn1-c1ccc(Cl)cc1)Nc1ccc(Br)cc1`, 1800 nM.
